These results are taken from patent US6524800B2, “Exploiting genomics in the search for new drugs” (Affymetrix, Inc., priority 1997, dated 2003).

Read-outs that look alike come from different tables or passages of the source.

The subject of assay [1] is drug-sensitized yeast strain. Nature of the assay: yeast growth inhibition. Particulars: Saccharomyces cerevisiae; strain with drug-sensitizing deletions (erg6, pdr5, snq2). Type of assay: cell-based.
In a further assay the test system is yeast cells. As to the kind of experiment: yeast arrest morphology and FACS. It is filed as cell-based. The source says:
16. The diminished growth inhibitory activity of compound 52Me is unlikely to result from poorer bioavailability because a similar N6 methylation is observed to increase the in vivo potency of a related series of purine-based inhibitors. The residual growth inhibitory activity of 52Me likely reflects activity against other cellular targets.

In assay [2] the test system is four yeast CDKs (Cdc28p, Kin28p, Pho85p, and Srb10p) and the related kinase Cak1p. As to the kind of experiment: yeast kinase panel in immunoprecipitates. It is filed as biochemical.
The test system of assay [3] is mRNA levels of nearly all yeast genes. Nature of the assay: transcript profiling with high-density oligonucleotide expression arrays. It is filed as cell-based, S. cerevisiae. Particulars: 25 μM, 2 hours. The protocol:
In addition to measuring the inhibitory effects of purine derivatives in kinase assays and assays of cell growth, their effects on the mRNA levels of nearly all yeast genes were determined with high-density oligonucleotide expression arrays (17, 18). These arrays (19, 20) make it possible to measure quantitatively and in parallel mRNA levels for a very large number of genes after any chemical, environmental, or genetic perturbation.
Yeast cultures were grown to late logarithmic phase (15), treated with 25 μM concentrations of the inhibitors for 2 hours, after which cellular polyadenylated mRNA was isolated and converted to biotin-labeled complementary RNA (cRNA) (17, 18). The labeled cRNA was then hybridized to a set of four arrays containing more than 260,000 25-nucleotide oligomers (20).
15. […] Three cultures [110 ml, in yeast extract, peptone, and dextrose (YPD)] were inoculated with single colonies of YRP1 (MAT, erg6::LEU2, pdr5::TRP1, snq2::HIS6) and grown at 30° C. with constant agitation in a water bath incubator. When the cell density reached an optical density (OD) of 0.9 (at a wavelength of 600 nm), 27.5 μl of a 100 mM dimethyl sulfoxide (DMSO) stock solution of 52 or flavopiridol or DMSO alone was added. After 2 hours the cells were harvested by centrifugation and flash frozen with liquid nitrogen. For the temperature-sensitive cdc28 mutants, three cultures (75 ml, YPD) of AFS 199 (cdc28-13), AA104 (cdc28-4), and their isogenic background strain AFS34 (MATa, ade2-1, his3-11, leu2-3, trp1-1, ura3) were grown from single colonies to an OD of 0.9 (600 nm) and harvested as described. Frozen cells were stored at […]

Assay [4] relates to human lung fibroblast cells. Particulars: cited from earlier work.
The target in assay [5] is cGMP-dependent protein kinase (Homo sapiens, UniProt Q13976). As to the kind of experiment: purified kinase assay, cGMP-dependent protein kinase. Type of assay: biochemical. The source says:
(§1) To examine the effects of a range of diverse substituents on the purine ring, we synthesized combinatorial libraries in which the 2, 6, and 9 positions could be varied starting with a 2-flouro-6-chloropurine framework. (FIG. 1A) (2,3). Substitution chemistry was used to install amines at the 2 and 6 positions, and a Mitsunobu reaction (4,5) was used to alkylate the N9 position of the purine core. The subsitution chemistry allows introduction of primary and secondary amines bearing a wide range of functional groups, whereas the Mitsunobu reaction tolerates primary and secondary alcohols lacking additional acidic hydrogens. Newly appended groups can be modified combinatorially in subsequent steps with a variety of chemistries including acylation, reductive amination, and Suzuki coupling reactions (6), During library synthesis, one position is held invariant to allow attachment to the solid support. Libraries are synthesized in a spatially separated format with either a pin apparatus (7) or polystyrene resin and screened for kinase inhibitors with a 96-well, solution-phase phosphorylation assay.

The next assay concerns the target Casein kinase 1. Nature of the assay: purified kinase assay, Casein kinase 1. Type of assay: biochemical, human.
Description: as §1

Assay [6] concerns the target c-jun NH2-terminal kinase. As to the kind of experiment: purified kinase assay, c-jun NH2-terminal kinase. It is filed as biochemical, human.
Description: as §1

The target of assay [7] is cAMP-dependent protein kinase (Homo sapiens, UniProt P17612). Nature of the assay: purified kinase assay, cAMP-dependent protein kinase. Type of assay: biochemical.
Description: as §1

Assay [8] has as its target Insulin-receptor tyrosine kinase (Homo sapiens, UniProt P06213). Nature of the assay: purified kinase assay, Insulin-receptor tyrosine kinase. It is filed as biochemical.
Description: as §1

Broadly, the GI50 is the concentration giving 50% growth inhibition. The term IC50 denotes the concentration needed to halve the response being measured. Higher therefore signals lower potency.

Chain of Insulin-receptor tyrosine kinase (P06213 28-1382): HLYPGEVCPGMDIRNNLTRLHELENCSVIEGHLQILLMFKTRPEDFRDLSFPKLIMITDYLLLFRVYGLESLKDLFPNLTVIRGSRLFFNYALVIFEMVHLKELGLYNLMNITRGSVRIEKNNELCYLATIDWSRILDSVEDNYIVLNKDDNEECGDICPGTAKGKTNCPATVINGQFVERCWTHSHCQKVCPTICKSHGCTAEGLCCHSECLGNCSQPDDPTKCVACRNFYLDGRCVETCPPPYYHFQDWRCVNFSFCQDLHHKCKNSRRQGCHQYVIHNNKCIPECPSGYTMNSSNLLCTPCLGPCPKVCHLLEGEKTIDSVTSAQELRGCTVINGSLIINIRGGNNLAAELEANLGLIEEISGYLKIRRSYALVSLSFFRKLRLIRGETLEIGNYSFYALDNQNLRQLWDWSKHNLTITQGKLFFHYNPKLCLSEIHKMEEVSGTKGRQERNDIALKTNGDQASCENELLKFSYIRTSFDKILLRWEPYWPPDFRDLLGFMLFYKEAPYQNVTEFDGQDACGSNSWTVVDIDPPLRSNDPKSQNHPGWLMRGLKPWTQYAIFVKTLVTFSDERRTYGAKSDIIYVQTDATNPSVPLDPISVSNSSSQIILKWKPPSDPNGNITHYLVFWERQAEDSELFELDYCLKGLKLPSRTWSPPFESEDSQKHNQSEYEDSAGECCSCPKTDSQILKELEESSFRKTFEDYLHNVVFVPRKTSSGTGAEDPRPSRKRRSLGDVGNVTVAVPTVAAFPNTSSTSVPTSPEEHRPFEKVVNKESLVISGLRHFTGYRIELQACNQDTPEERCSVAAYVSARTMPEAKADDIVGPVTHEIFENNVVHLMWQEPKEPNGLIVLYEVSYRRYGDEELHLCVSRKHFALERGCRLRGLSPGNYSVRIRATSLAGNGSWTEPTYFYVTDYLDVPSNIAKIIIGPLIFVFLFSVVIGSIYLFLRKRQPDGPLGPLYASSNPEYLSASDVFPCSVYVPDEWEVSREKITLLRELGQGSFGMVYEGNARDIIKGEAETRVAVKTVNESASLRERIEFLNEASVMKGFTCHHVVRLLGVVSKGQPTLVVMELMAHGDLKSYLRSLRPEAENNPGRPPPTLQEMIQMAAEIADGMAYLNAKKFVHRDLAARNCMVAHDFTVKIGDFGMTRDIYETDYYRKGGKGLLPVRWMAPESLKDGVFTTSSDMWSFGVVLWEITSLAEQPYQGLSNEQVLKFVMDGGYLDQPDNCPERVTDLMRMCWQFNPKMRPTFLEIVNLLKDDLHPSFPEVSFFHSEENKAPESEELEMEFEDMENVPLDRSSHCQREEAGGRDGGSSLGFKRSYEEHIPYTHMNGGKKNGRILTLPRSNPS
Chain of cGMP-dependent protein kinase (Q13976 whole entry): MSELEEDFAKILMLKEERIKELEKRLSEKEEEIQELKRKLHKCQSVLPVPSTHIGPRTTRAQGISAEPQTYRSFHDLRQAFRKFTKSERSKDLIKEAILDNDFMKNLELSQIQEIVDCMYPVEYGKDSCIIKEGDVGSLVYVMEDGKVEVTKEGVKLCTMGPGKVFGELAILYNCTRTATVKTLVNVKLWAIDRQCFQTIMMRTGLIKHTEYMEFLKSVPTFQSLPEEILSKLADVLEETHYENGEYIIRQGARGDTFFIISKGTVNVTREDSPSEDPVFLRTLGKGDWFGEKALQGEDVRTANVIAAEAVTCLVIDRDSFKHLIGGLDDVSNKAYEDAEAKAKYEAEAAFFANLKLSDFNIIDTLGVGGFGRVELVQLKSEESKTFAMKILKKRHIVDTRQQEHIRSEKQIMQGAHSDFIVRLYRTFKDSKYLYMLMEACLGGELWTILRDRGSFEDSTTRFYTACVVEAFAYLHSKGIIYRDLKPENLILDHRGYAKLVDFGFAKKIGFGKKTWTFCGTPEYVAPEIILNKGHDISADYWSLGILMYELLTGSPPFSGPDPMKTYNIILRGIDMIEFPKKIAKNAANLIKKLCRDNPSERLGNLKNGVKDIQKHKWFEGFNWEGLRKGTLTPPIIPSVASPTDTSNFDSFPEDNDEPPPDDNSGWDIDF

Take `CC(C)n1cnc2c(N(C)c3cccc(Cl)c3)nc(NCCO)nc21` [Compound 52Me]: the GI50 in [1] worked out at 200 µM. Moreover, in the assay on yeast cells, the “arrest morphology in yeast (in words)” value was “failed to cause a uniform arrest morphology” and the “synchronization of yeast cells by FACS (in words)” value was “did not reveal synchronization”. The “inhibition of any of the CDKs tested (in words)” value in [2] is “did not inhibit”. Besides, in assay [3], the “% of transcripts with greater than twofold change” value came to 0.03%. Besides, the “number of genes with greater than twofold change in transcript level” value in assay [3] (more than 6200 genes monitored) turned out to be 2.

Take `COc1ccc(CNc2nc(N(CCO)CCO)nc3c2ncn3C(C)C)cc1` [2-(bis-(hydroxylethyl)amino)-6-(4-methoxybenzylamino)-9-isopropylpurine]: the “cell cycle inhibitory activity by FACS” value in [4] (high concentrations) is “both G1-S and G2-M inhibitory activity”; in assay [4] (lower concentrations) it was “predominant G1-S inhibition”.

As for `CC(C)[C@H](CO)Nc1nc(Nc2ccc(C(=O)O)c(Cl)c2)c2ncn(C(C)C)c2n1` [purvalanol B, 2-(1R-isopropyl-2-hydroxyethylamino)-6-(3-chloro-4-carboxyanilino)-9-isopropylpurine], the IC50 in [5] is > 100 µM; at Casein kinase 1, > 3.33 µM; in [6], > 10 µM; in assay [7], 3.8 µM; in [8], 2.2 µM.
